# Publication PMC9944328 (Nature Communications, 2023)
# Read-outs that look alike come from different tables or passages of the source.
# Test system: SSTR2 mutants
# Assay: SSTRs Gi-mediated cAMP inhibition, GloSensor, HEK293, 5 μM forskolin, 15 min room temperature (SSTR2 mutants)
# Format: cell-based, human
# Design: Best-fit Bottom, cAMP inhibition / Best-fit Top, cAMP inhibition / Span, cAMP inhibition / Bottom (best-fit value) / Top (best-fit value) / Span (best-fit value) / Span (best-fit) / Bottom (best-fit) / Top (best-fit) / Best-fit Bottom / Best-fit Top / Best-fit Span / Top / Span: scale not given here
# Experimental: The levels of the intracellular 3′, 5′-cyclic AMP (cAMP) were measured by the GloSensor cAMP assay (Promega) as described in the previous studies[28],[41] which has been widely used. The human full-length SSTRs and mutants were cloned into the pcDNA3.1+ vector with a HA signal sequence followed by a Flag tag at the N-terminus. HEK293 cells (ATCC, CRL-1573) were seeded into 6-well microplates at a density of 1.0 × 10^6 cells/well and cultured for 24 h at 37 °C with 5% CO2. Cells were then co-transfected with SSTR wild-type or mutants and GloSensor plasmids. After 24 h of transfection, the cells were dissociated with TrypLE™ Express Enzyme (1X) (Thermo Fisher Scientific) and collected by centrifugation at 500 × g for 5 min. Then the collected cells were suspended in Hank’s balanced salt solution [HBSS (Thermo Fisher Scientific)] supplemented with […] (YEASEN), and then the suspension cells were seeded into 96-well plates with 90 μl/well. After incubating at room temperature for 40 min, 5 μM forskolin and ligands diluted in HBSS were added to each well and the plates were incubated at room temperature for 15 min. […] were measured using the Synergy H1 microplate reader (BioTek) and the data presented are means of at least three independent experiments.
smiles,measurement,setting,value
C[C@@H](O)[C@@H]1NC(=O)[C@H](CCCCN)NC(=O)[C@@H](Cc2c[nH]c3ccccc23)NC(=O)[C@H](Cc2ccccc2)NC(=O)[C@@H](NC(=O)[C@H](N)Cc2ccccc2)CSSC[C@@H](C(=O)N[C@H](CO)[C@@H](C)O)NC1=O [octreotide],Best-fit Bottom,D295A-1,-10.23
same,Best-fit Span,D295A-1,99.42
same,Best-fit Top,D295A-1,89.19
same,LogEC50,D295A-1,-8.381
same,EC50,"D295A-1, read-out: EC50",4.16 nM
same,Best-fit Bottom,D295A-2,1.886
same,Best-fit Span,D295A-2,96.17
same,Best-fit Top,D295A-2,98.06
same,LogEC50,D295A-2,-8.514
same,EC50,"D295A-2, read-out: EC50",3.06 nM
same,Best-fit Span,D295A-3,116.5
same,Best-fit Top,D295A-3,121.2
same,LogEC50,D295A-3,-8.224
same,EC50,"D295A-3, read-out: EC50",5.97 nM
same,Span (best-fit),F208A-1,78.86
same,Span (best-fit),F208A-2,58.27
same,Bottom (best-fit),F265A-1,0.9849
same,LogEC50 (best-fit),F265A-1,-7.854
same,Span (best-fit),F265A-1,101.1
same,Top (best-fit),F265A-1,102.1
same,EC50,"F265A-1, read-out: EC50 (best-fit)",14 nM
same,Bottom (best-fit),F265A-2,21.57
same,LogEC50 (best-fit),F265A-2,-8.682
same,Span (best-fit),F265A-2,69.47
same,Top (best-fit),F265A-2,91.04
same,EC50,"F265A-2, read-out: EC50 (best-fit)",2.08 nM
same,Bottom (best-fit),F265A-3,0.9849
same,LogEC50 (best-fit),F265A-3,-7.854
same,Span (best-fit),F265A-3,101.1
same,Top (best-fit),F265A-3,102.1
same,Bottom (best-fit),F272A-1,2.117
same,LogEC50 (best-fit),F272A-1,-8.522
same,Span (best-fit),F272A-1,53.6
same,Top (best-fit),F272A-1,55.72
same,EC50,"F272A-1, read-out: EC50 (best-fit)",3 nM
same,Bottom (best-fit),F272A-2,11.48
same,LogEC50 (best-fit),F272A-2,-6.317
same,Span (best-fit),F272A-2,89.48
same,Top (best-fit),F272A-2,101
same,EC50,"F272A-2, read-out: EC50 (best-fit)",482 nM
same,Bottom (best-fit),F272A-3,14.59
same,LogEC50 (best-fit),F272A-3,-6.317
same,Span (best-fit),F272A-3,113.7
same,Top (best-fit),F272A-3,128.3
same,Best-fit Bottom,F294A-1,3.53
same,Best-fit Span,F294A-1,87.88
same,Best-fit Top,F294A-1,91.41
same,LogEC50,F294A-1,-6.677
same,EC50,"F294A-1, read-out: EC50",211 nM
same,Best-fit Bottom,F294A-2,6.308
same,Best-fit Span,F294A-2,82.91
same,Best-fit Top,F294A-2,89.22
same,LogEC50,F294A-2,-6.828
same,EC50,"F294A-2, read-out: EC50",149 nM
same,Best-fit Bottom,F294A-3,4.16
same,Best-fit Span,F294A-3,103.6
same,Best-fit Top,F294A-3,107.7
same,LogEC50,F294A-3,-6.677
same,Emax,"Gi signaling, I130A, earlier manuscript version quoted by reviewer, superseded",91%
same,Emax,"Gi signaling, Q102A, earlier manuscript version quoted by reviewer, superseded",109%
same,Emax,"Gi signaling, SSTR2 D122(3.32)A, detected at 10 μM, n=3",12.04±1.83 %WT
same,Emax,"Gi signaling, SSTR2 D295(7.36)A, n=3",102.80±9.54 %WT
same,EC50,"Gi signaling, SSTR2 D295(7.36)A, n=3, read-out: EC50",4.4 ± 8.48 nM
same,Emax,"Gi signaling, SSTR2 F127(3.37)A, n=3",108.70±0.91 %WT
same,EC50,"Gi signaling, SSTR2 F127(3.37)A, n=3, read-out: EC50",1.93 nM
same,Emax,"Gi signaling, SSTR2 F208(5.38)A, n=3",96.46±2.20 %WT
same,EC50,"Gi signaling, SSTR2 F208(5.38)A, n=3, read-out: EC50",6.42 ± 2.37 nM
same,Emax,"Gi signaling, SSTR2 F265(6.44)A, n=3",99.81±4.55 %WT
same,EC50,"Gi signaling, SSTR2 F265(6.44)A, n=3, read-out: EC50",12.3 ± 5.46 nM
same,Emax,"Gi signaling, SSTR2 F272A, n=3",95.01±21.17 %WT
same,EC50,"Gi signaling, SSTR2 F272A, n=3, read-out: EC50",322.3 ± 1.6 nM
same,Emax,"Gi signaling, SSTR2 F294(7.35)A, n=3",96.11±5.83 %WT
same,EC50,"Gi signaling, SSTR2 F294(7.35)A, n=3, read-out: EC50",190 ± 2.07 nM
same,Emax,"Gi signaling, SSTR2 I130(3.40)A, n=3",101.10±5.08 %WT
same,EC50,"Gi signaling, SSTR2 I130(3.40)A, n=3, read-out: EC50",11.6 ± 4.99 nM
same,Emax,"Gi signaling, SSTR2 I195(45.52)A, n=3",100.40±3.58 %WT
same,EC50,"Gi signaling, SSTR2 I195(45.52)A, n=3, read-out: EC50",6.58 ± 1.1 nM
same,Emax,"Gi signaling, SSTR2 I284ECL3A, n=3",97.53±14.28 %WT
same,EC50,"Gi signaling, SSTR2 I284ECL3A, n=3, read-out: EC50",1.91 ± 4.66 nM
same,Emax,"Gi signaling, SSTR2 K291(7.32)A, n=3",89.41±10.26 %WT
same,EC50,"Gi signaling, SSTR2 K291(7.32)A, n=3, read-out: EC50",5.46 ± 1.06 nM
same,Emax,"Gi signaling, SSTR2 L99(2.60)A, n=3",92.36±6.12 %WT
same,EC50,"Gi signaling, SSTR2 L99(2.60)A, n=3, read-out: EC50",1.25 nM
same,Emax,"Gi signaling, SSTR2 L290(7.31)A, n=3",103.50±7.16 %WT
same,Emax,"Gi signaling, SSTR2 N276(6.55)A, n=3",107.20±5.70 %WT
same,EC50,"Gi signaling, SSTR2 N276(6.55)A, n=3, read-out: EC50",35.1 ± 8.45 nM
same,Emax,"Gi signaling, SSTR2 P220(5.50)A, n=3",95.86±14.17 %WT
same,EC50,"Gi signaling, SSTR2 P220(5.50)A, n=3, read-out: EC50",3.37 ± 1.32 nM
same,Emax,"Gi signaling, SSTR2 P286ECL3A, n=3",102.40±5.34 %WT
same,EC50,"Gi signaling, SSTR2 P286ECL3A, n=3, read-out: EC50",0.62 ± 1.18 nM
same,Emax,"Gi signaling, SSTR2 Q102(2.63)A, n=3",71.48±1.31 %WT
same,EC50,"Gi signaling, SSTR2 Q102(2.63)A, n=3, read-out: EC50",66.8 ± 2.72 nM
same,Emax,"Gi signaling, SSTR2 Q126(3.36)A, detected at 10 μM, n=3",21.88±1.91 %WT
same,Emax,"Gi signaling, SSTR2 S279(6.58)A, n=3",101.70±5.61 %WT
same,EC50,"Gi signaling, SSTR2 S279(6.58)A, n=3, read-out: EC50",1.17 ± 1.01 nM
same,Emax,"Gi signaling, SSTR2 S285ECL3A, n=3",87.52±6.00 %WT
same,EC50,"Gi signaling, SSTR2 S285ECL3A, n=3, read-out: EC50",0.69 ± 1.18 nM
same,Emax,"Gi signaling, SSTR2 T194(45.51)A, n=3",91.51±3.38 %WT
same,EC50,"Gi signaling, SSTR2 T194(45.51)A, n=3, read-out: EC50",48.5 ± 2.29 nM
same,Emax,"Gi signaling, SSTR2 T287ECL3A, n=3",98.50±5.26 %WT
same,EC50,"Gi signaling, SSTR2 T287ECL3A, n=3, read-out: EC50",0.6 nM
same,Emax,"Gi signaling, SSTR2 V103(2.64)A, n=3",90.80±3.48 %WT
same,EC50,"Gi signaling, SSTR2 V103(2.64)A, n=3, read-out: EC50",7.66 ± 2.51 nM
same,Emax,"Gi signaling, SSTR2 W188ECL3A, n=3",102.40±5.12 %WT
same,EC50,"Gi signaling, SSTR2 W188ECL3A, n=3, read-out: EC50",0.32 nM
same,Emax,"Gi signaling, SSTR2 W269(6.48)A, n=3",99.58±2.56 %WT
same,EC50,"Gi signaling, SSTR2 W269(6.48)A, n=3, read-out: EC50",0.89 ± 2.24 nM
same,Emax,"Gi signaling, SSTR2 Y50(1.39)A, n=3",104.70±0.48 %WT
same,EC50,"Gi signaling, SSTR2 Y50(1.39)A, n=3, read-out: EC50",0.46 nM
same,Emax,"Gi signaling, SSTR2 Y205(5.35)A, n=3",112.90±25.77 %WT
same,EC50,"Gi signaling, SSTR2 Y205(5.35)A, n=3, read-out: EC50",0.92 nM
same,Emax,"Gi signaling, SSTR2 Y302(7.43)A, n=3",79.09±10.74 %WT
same,EC50,"Gi signaling, SSTR2 Y302(7.43)A, n=3, read-out: EC50",79 ± 2.7 nM
same,Bottom (best-fit value),"I284A-1, run 1",8.872
same,LogEC50 (best-fit value),"I284A-1, run 1",-8.868
same,Span (best-fit value),"I284A-1, run 1",107.4
